Assay [1] relates to genotype 1b-Con1 subgenomic replicon cell line. As to the kind of experiment: microbe, parasite or virus in culture. The assay is classed as cell-based, HCV. The following applies: read-out: EC50 1b.
For assay [2], the system named is genotype 1a-H77 subgenomic replicon cell line. As to the kind of experiment: microbe, parasite or virus in culture. The following applies: read-out: EC50 1a. The assay is classed as cell-based, HCV.

Structures are written as SMILES. Where two headings read alike, the source gives them in different places. Some results are limits rather than exact numbers.

As to `COc1c(-c2nc3cc(NS(C)(=O)=O)ccc3o2)cc(N2CCC(=O)NC2=O)cc1C(C)(C)C` [IA-L0-2.8, N-(2-(3-tert-butyl-5-(2,4-dioxotetrahydropyrimidin-1(2H)-yl)-2-methoxyphenyl)benzo[d]oxazol-5-yl)methanesulfonamide], the EC50 (in general, the concentration needed to bring the measured effect to its halfway point) in assay [1] (Hepatitis C virus) fell in the range of 10 to 100 nM; in assay [2] (Hepatitis C virus) it was 100 to 1000 nM.
Taken in the same sequence, the figures for `COc1c(-c2ccc3cc(NS(C)(=O)=O)ccc3c2)cc(N2CCC(=O)NC2=O)cc1C(C)(C)C` [IA-L0-2.9, N-(6-(3-tert-butyl-5-(2,4-dioxotetrahydropyrimidin-1(2H)-yl)-2-methoxyphenyl)naphthalen-2-yl)methanesulfonamide] were less than 10 nM and less than 10 nM.
The matching figures for `COc1c(/C=C(\Cl)c2ccc(NS(C)(=O)=O)cc2)cc(N2CCC(=O)NC2=O)cc1C(C)(C)C` [IA-L1-1.3, (Z)—N-(4-(2-(3-tert-butyl-5-(2,4-dioxotetrahydropyrimidin-1(2H)-yl)-2-methoxyphenyl)-1-chlorovinyl)phenyl)methanesulfonamide]: less than 10 nM and 10 to 100 nM.
`COc1c(/C=C(\F)c2ccc(NS(C)(=O)=O)cc2)cc(N2CCC(=O)NC2=O)cc1C(C)(C)C` [IA-L1-1.4, (Z)—N-(4-(2-(3-tert-butyl-5-(2,4-dioxotetrahydropyrimidin-1(2H)-yl)-2-methoxyphenyl)-1-fluorovinyl)phenyl)methanesulfonamide]: the EC50 in assay [1] (Hepatitis C virus) and in assay [2] (Hepatitis C virus) was less than 10 nM each time.
Turning to `COc1c(/C=C(/F)c2ccc(NS(C)(=O)=O)cc2)cc(N2CCC(=O)NC2=O)cc1C(C)(C)C` [IA-L1-1.5, (E)-N-(4-(2-(3-tert-butyl-5-(2,4-dioxotetrahydropyrimidin-1(2H)-yl)-2-methoxyphenyl)-1-fluorovinyl)phenyl)methanesulfonamide], the concentration for a half-maximal effect (EC50) is less than 10 nM in assay [1] (Hepatitis C virus) and 10 to 100 nM in assay [2] (Hepatitis C virus).
The matching figures for `COc1c(/C=C(\C)c2ccc(NS(C)(=O)=O)cc2)cc(N2CCC(=O)NC2=O)cc1C(C)(C)C` [IA-L1-1.6, (E)-N-(4-(1-(3-tert-butyl-5-(2,4-dioxotetrahydropyrimidin-1(2H)-yl)-2-methoxyphenyl)prop-1-en-2-yl)phenyl)methanesulfonamide]: 10 to 100 nM and 10 to 100 nM.
Taken in the same sequence, the figures for `COc1c(/C=C/c2ccc(NS(C)(=O)=O)cc2)cc(N2CCC(=O)NC2=O)cc1C(C)(C)C` [IA-L1-1.9, (E)-N-(4-(3-tert-butyl-5-(2,4-dioxotetrahydropyrimidin-1(2H)-yl)-2-methoxystyryl)phenyl)methanesulfonamide] were less than 10 nM and 10 to 100 nM.
In the case of `COc1c(/C=C/c2ccc(N(C(C)=O)S(C)(=O)=O)cc2)cc(N2CCC(=O)NC2=O)cc1C(C)(C)C` [IA-L1-1.11, (E)-N-(4-(3-tert-butyl-5-(2,4-dioxotetrahydropyrimidin-1(2H)-yl)-2-methoxystyryl)phenyl)-N-(methylsulfonyl)acetamide], the half-maximal effective concentration (EC50) in assay [1] (Hepatitis C virus) and in assay [2] (Hepatitis C virus) was less than 10 nM throughout.
As for `COc1c(/C=C/c2ccc(F)cc2)cc(N2CCC(=O)NC2=O)cc1C(C)(C)C` [IA-L1-1.12, (E)-1-(3-tert-butyl-5-(4-fluorostyryl)-4-methoxyphenyl) dihydropyrimidine-2,4(1H,3H)-dione], the concentration giving a half-maximal response (EC50) in assay [1] (Hepatitis C virus) and in assay [2] (Hepatitis C virus) was 100 to 1000 nM throughout.
As to `COc1c(/C=C/c2ccc(N)cc2)cc(N2CCC(=O)NC2=O)cc1C(C)(C)C` [IA-L1-1.13, (E)-1-(3-(4-aminostyryl)-5-tert-butyl-4-methoxyphenyl)dihydropyrimidine-2,4(1H,3H)-dione], the values for the EC50 in assay [1] (Hepatitis C virus) and in assay [2] (Hepatitis C virus) were 100 to 1000 nM and more than 1000 nM, respectively.
The matching figures for `COc1ccc(/C=C/c2cc(N3CCC(=O)NC3=O)cc(C(C)(C)C)c2OC)cc1` [IA-L1-1.14, (E)-1-(3-tert-butyl-4-methoxy-5-(4-methoxystyryl)phenyl) dihydropyrimidine-2,4(1H,3H)-dione]: more than 1000 nM and more than 1000 nM.
With `CC(C)(C)c1cc(/C=C/c2ccc(NS(C)(=O)=O)cc2)cc(N2CCC(=O)NC2=O)c1` [IA-L1-1.16, (E)-N-(4-(3-tert-butyl-5-(2,4-dioxotetrahydropyrimidin-1(2H)-yl)styryl)phenyl)methanesulfonamide], the EC50 in assay [1] (Hepatitis C virus) and in assay [2] (Hepatitis C virus) was 10 to 100 nM each time.
As for `CO/C(=C\c1cc(N2CCC(=O)NC2=O)cc(C(C)(C)C)c1OC)c1ccc(NS(C)(=O)=O)cc1` [IA-L1-1.17, (Z)—N-(4-(2-(3-tert-butyl-5-(2,4-dioxotetrahydropyrimidin-1(2H)-yl)-2-methoxyphenyl)-1-methoxyvinyl)phenyl)methanesulfonamide], the 50% effective concentration (EC50) in assay [1] (Hepatitis C virus) and in assay [2] (Hepatitis C virus) was 10 to 100 nM each time.
For the compound `COc1c(/C=C/c2ccccc2)cc(N2CCC(=O)NC2=O)cc1C(C)(C)C` [IA-L1-1.18, (E)-1-(3-tert-butyl-4-methoxy-5-styrylphenyl)dihydro-pyrimidine-2,4(1H,3H)-dione], the EC50 in assay [1] (Hepatitis C virus) and in assay [2] (Hepatitis C virus) was 100 to 1000 nM in each case.
As to `COc1c(/C=C/c2ccc([N+](=O)[O-])cc2)cc(N2CCC(=O)NC2=O)cc1C(C)(C)C` [IA-L1-1.22, (E)-1-(3-tert-butyl-4-methoxy-5-(4-nitrostyryl)phenyl)dihydropyrimidine-2,4(1H,3H)-dione], the half-maximal effective concentration (EC50) in assay [1] (Hepatitis C virus) was 100 to 1000 nM; in assay [2] (Hepatitis C virus), more than 1000 nM.
Taken in the same sequence, the figures for `COc1c(/C=C(\Cl)c2ccc([N+](=O)[O-])cc2)cc(N2CCC(=O)NC2=O)cc1C(C)(C)C` [IA-L1-1.23, 1-{3-tert-butyl-5-[(Z)-2-chloro-2-(4-nitro-phenyl)-vinyl]-4-methoxy-phenyl}-dihydro-pyrimidine-2,4-dione] were more than 1000 nM and more than 1000 nM.
The matching figures for `COc1c(/C=C(\C)c2ccc([N+](=O)[O-])cc2)cc(N2CCC(=O)NC2=O)cc1C(C)(C)C` [IA-L1-1.24, 1-{3-tert-butyl-4-methoxy-5-[(E)-2-(4-nitro-phenyl)-propenyl]-phenyl}-dihydro-pyrimidine-2,4-dione]: more than 1000 nM and more than 1000 nM.
The matching figures for `COc1c(/C=C/c2ccc(NS(C)(=O)=O)c(F)c2)cc(N2CCC(=O)NC2=O)cc1C(C)(C)C` [IA-L1-1.26, (E)-N-(4-(3-tert-butyl-5-(2,4-dioxotetrahydropyrimidin-1(2H)-yl)-2-methoxystyryl)-2-fluorophenyl)methanesulfonamide]: 10 to 100 nM and 10 to 100 nM.
For `CC(C)(C)c1cc(NC(=O)c2ccc(NS(C)(=O)=O)cc2)cc(N2CCC(=O)NC2=O)c1` [IA-L3-1.84, N-(3-tert-butyl-5-(2,4-dioxotetrahydropyrimidin-1(2H)-yl)phenyl)-4-(methylsulfonamido) benzamide], the half-maximal effective concentration (EC50) is more than 1000 nM in assay [1] (genotype 1b-Con1 replicon, luciferase reporter) and more than 1000 nM in assay [2] (genotype 1a-H77 replicon, luciferase reporter).
For the compound `COc1c(CCc2ccc(NS(C)(=O)=O)cc2)cc(N2CCC(=O)NC2=O)cc1C(C)(C)C` [IA-L5-2-1.1, N-(4-(3-tert-butyl-5-(2,4-dioxotetrahydropyrimidin-1(2H)-yl)-2-methoxyphenethyl)phenyl)methanesulfonamide], the values for the concentration giving a half-maximal response (EC50) in assay [1] (Hepatitis C virus) and in assay [2] (Hepatitis C virus) were 10 to 100 nM and 100 to 1000 nM, respectively.
In the case of `CC(C)(C)c1cc(CCc2ccc(NS(C)(=O)=O)cc2)cc(N2CCC(=O)NC2=O)c1` [IA-L5-2-1.2, N-(4-(3-tert-butyl-5-(2,4-dioxotetrahydropyrimidin-1(2H)-yl)phenethyl)phenyl)methane sulfonamide], the EC50 in assay [1] (Hepatitis C virus) and in assay [2] (Hepatitis C virus) was 100 to 1000 nM throughout.
For `COc1c(C2CC2c2ccc(NS(C)(=O)=O)cc2)cc(N2CCC(=O)NC2=O)cc1C(C)(C)C` (centres unmarked) [IA-L8-1.1, N-(4-(2-(3-tert-butyl-5-(2,4-dioxotetrahydropyrimidin-1(2H)-yl)-2-methoxyphenyl)cyclopropyl)phenyl)methanesulfonamide], the concentration for a half-maximal effect (EC50) in assay [1] (Hepatitis C virus) and in assay [2] (Hepatitis C virus) was 100 to 1000 nM throughout.
On to `COc1c(-c2ccc3ccccc3c2)cc(-n2ccc(=O)[nH]c2=O)cc1C(C)(C)C` [IB-L0-2.1, 1-(3-tert-butyl-4-methoxy-5-(naphthalen-2-yl)phenyl)pyrimidine-2,4(1H,3H)-dione], for which the values for the EC50 in assay [1] (Hepatitis C virus) and in assay [2] (Hepatitis C virus) were 100 to 1000 nM and more than 1000 nM, respectively.
Taken in the same sequence, the figures for `COc1ccc2cc(-c3cc(-n4ccc(=O)[nH]c4=O)cc(C(C)(C)C)c3OC)ccc2c1` [IB-L0-2.2, 1-(3-tert-butyl-4-methoxy-5-(6-methoxynaphthalen-2-yl)phenyl)pyrimidine-2,4(1H,3H)-dione] were more than 1000 nM and more than 1000 nM.
For the compound `COc1c(-c2ccc3cc(NS(C)(=O)=O)ccc3c2)cc(-n2ccc(=O)[nH]c2=O)cc1C(C)(C)C` [IB-L0-2.3, N-(6-(3-tert-butyl-5-(2,4-dioxo-3,4-dihydropyrimidin-1(2H)-yl)-2-methoxyphenyl)naphthalen-2-yl)methanesulfonamide], the concentration for a half-maximal effect (EC50) in assay [1] (Hepatitis C virus) and in assay [2] (Hepatitis C virus) was less than 10 nM throughout.
As to `COc1c(-c2ccc3nc(NS(C)(=O)=O)ccc3c2)cc(-n2ccc(=O)[nH]c2=O)cc1C(C)(C)C` [IB-L0-2.5, N-(6-(3-tert-butyl-5-(2,4-dioxo-3,4-dihydropyrimidin-1(2H)-yl)-2-methoxyphenyl)quinolin-2-yl)methanesulfonamide], the concentration giving a half-maximal response (EC50) in assay [1] (Hepatitis C virus) was less than 10 nM; in assay [2] (Hepatitis C virus), 10 to 100 nM.
The matching figures for `COc1c(-c2nc3cc(NS(C)(=O)=O)ccc3o2)cc(-n2ccc(=O)[nH]c2=O)cc1C(C)(C)C` [IB-L0-2.6, N-(2-(3-tert-butyl-5-(2,4-dioxo-3,4-dihydropyrimidin-1(2H)-yl)-2-methoxyphenyl)benzo[d]oxazol-5-yl)methanesulfonamide]: 10 to 100 nM and 100 to 1000 nM.
Consider `COc1c(-c2ccc3c(c2)CC[C@]3(F)CNS(C)(=O)=O)cc(-n2ccc(=O)[nH]c2=O)cc1C(C)(C)C` [IB-L0-2.10, (R)—N-((5-(3-tert-butyl-5-(2,4-dioxo-3,4-dihydropyrimidin-1(2H)-yl)-2-methoxyphenyl)-1-fluoro-2,3-dihydro-1H-inden-1-yl)methyl)methanesulfonamide], for which the 50% effective concentration (EC50) in assay [1] (Hepatitis C virus) and in assay [2] (Hepatitis C virus) was less than 10 nM each time.

Source of the values: patent US8415351B2 (priority 2007, dated 2013).
